From paper PMC4686662 (Nature Communications, 2015)
≈ marks a conversion by molar mass, not a printed value. Like-named read-outs stand apart in the source and are kept apart here.

Experiments:
human Top2β = tested on: human Top2β; parameters: method as in PMID 26149691; details: cited from earlier work
E. coli DNA gyrase [1] = biological target: T1, E. coli DNA gyrase (Escherichia coli, UniProt P0AES4+P0AES6); experiment: E. coli DNA gyrase supercoiling inhibition assay; format: biochemical; parameters: E. coli full-length DNA gyrase subunits A and B (both N-terminally 6-His-tagged) produced in-house; 6-His (N); made in house
Method: (§1) In vitro topoisomerase activity assays were performed as described with minor modifications. […] For E. coli DNA gyrase supercoiling assays, 3.4 nM of wild-type E. coli DNA gyrase (Inspiralis) was incubated with 500 ng relaxed pBR322 plasmid DNA in a 30-μl reaction containing the same buffer mixture but without the potassium glutamate. For S. aureus topo IV decatenation assays, 4 nM of S. aureus topo IV was incubated with 200 ng kinetoplast DNA in buffer as described by the manufacturer (Inspiralis). In E. coli topo IV decatenation assay, 0.125 nM of E. coli topo IV was incubated with kDNA as described in the protocol (Inspiralis). Human Top2α relaxation assays were performed as reported using 2 nM of enzyme. […] Reactions were analysed by electrophoresis in 1% w/v agarose gels followed by ethidium bromide staining. IC50 values, defined as the amount of compound that causes half-maximal inhibition, were determined by quantifying the DNA products using densitometry (VisionWorks, UVP) and fitting the data by nonlinear regression with GraFit software (Erythacus). Compound IC50 values reported are the averages of two to three determinations.

Klebsiella pneumoniae = experiment: MIC, broth microdilution, K. pneumoniae strains; format: cell-based; parameters: unit not given here; details: Klebsiella pneumoniae 1161486 tolC
Method: (§2) Antibacterial minimum inhibitory concentrations (MICs) were determined from two independent experiments using broth microdilution methods according to Clinical and Laboratory Standards Institute guidelines. […] Bacterial strains used were from GSK's culture collection.

E. coli = experiment: MIC, broth microdilution, E. coli strains; format: cell-based, Escherichia coli
Method: as §2

Haemophilus influenzae = experiment: MIC, broth microdilution, H. influenzae strains; format: cell-based; parameters: unit not given here
Method: as §2

Acinetobacter baumannii = experiment: MIC, broth microdilution, A. baumannii strains; format: cell-based; parameters: unit not given here; details: A. baumannii ACM1015 adeABC adeIJK (footnote c)
Method: as §2

S. aureus DNA gyrase [2] = biological target: T2, S. aureus DNA gyrase (Staphylococcus aureus, UniProt P0A0K8+P20831); experiment: biochemical; format: biochemical; details: for Type of DNA breaks stabilized with S. aureus DNA gyrase: each compound 100 μM, supercoiled pBR322, full-length S. aureus gyrase
T2 construct: Full-length S. aureus GyrA and GyrB were expressed in E. coli and purified as described; made in house; host or cells: E. coli
Method: (§3) BlueJuice gel loading buffer (Invitrogen) was added. […] See Supplementary Fig. 15 for representative gels.

Human Top2α [3] = biological target: T3, Human Top2α (Homo sapiens, UniProt P11388); experiment: Human Top2α relaxation inhibition assay; format: biochemical
E. coli Topo IV [4] = biological target: T4, E. coli Topo IV (Escherichia coli, UniProt P0AFI2+P20083); details: read-out: IC50, E. coli Topo IV decatanation; supplementary ref 3; cited from earlier work
T4 construct: purchased Inspiralis

Human Top2α [5] = biological target: T3, Human Top2α; experiment: DNA cleavage assay with human Top2α
Method: as §3

S. aureus = experiment: MIC, broth microdilution, S. aureus strains; format: cell-based; details: Staphylococcus aureus
Method: as §2
(§4) The quinolone resistance-determining region (QRDR) or full-length of gyrA/B and parC/E were amplified by PCR from the resistant mutants and DNA sequenced using the following primer pairs (all 5′–3′ sequence): for S. aureus gyrA: […] and […]; gyrB […] and […]; parC […] and […], and parE […] and […], respectively. For S. pneumoniae gyrA: […] and […]; gyrB: […] and […]; parC: […] and […], and parE: […] and […], respectively. […] Mutations in etoposide-resistant transformants were confirmed by PCR and DNA analysis.

E. coli DNA gyrase [6] = biological target: T1, E. coli DNA gyrase; details: concentrations showing similar intensities of DSB
S. aureus Topo IV [7] = biological target: T5, S. aureus Topo IV (Staphylococcus aureus, UniProt P0C1S7+P0C1U9); parameters: method as in earlier work; details: read-out: IC50, S. aureus Topo IV decatanation; supplementary ref 4; cited from earlier work
T5 construct: purchased Inspiralis

S. pneumoniae = experiment: MIC, broth microdilution, S. pneumoniae strains; format: cell-based; details: Streptococcus pneumoniae
Method: as §2, §4

S. aureus Topo IV [8] = biological target: T5, S. aureus Topo IV; experiment: S. aureus topo IV decatenation inhibition assay; format: biochemical
Method: as §1

S. aureus DNA gyrase [9] = biological target: T2, S. aureus DNA gyrase; experiment: S. aureus DNA gyrase supercoiling inhibition assay; format: biochemical
Method: as §1

E. coli Topo IV [10] = biological target: T4, E. coli Topo IV; experiment: E. coli topo IV decatenation inhibition assay; format: biochemical
Method: as §1

[11] = Escherichia coli, E. coli 7623, read-out: MIC
[12] = Escherichia coli, E. coli 7623 ΔtolC
[13] = S. aureus RN4220 (parent), read-out: MIC
[14] = S. aureus RN4220 GyrB ΔT403-K406, read-out: MIC
[15] = S. pneumoniae 1629, read-out: MIC
[16] = S. pneumoniae 1629 GyrB ΔL407–S410, read-out: MIC

Row | SMILES | MIC (S. aureus; [13]) [mg/L] | MIC (S. aureus; S. aureus RN4220 GyrB D437A) [mg/L] | MIC (S. aureus; S. aureus RN4220 GyrB D437N) [mg/L] | MIC (S. aureus; S. aureus RN4220 GyrB D437V) [mg/L] | MIC (S. aureus; S. aureus RN4220 GyrB P456L) [mg/L] | MIC (S. aureus; [14]) [mg/L] | further results
1 | C[C@@H]1CN2c3c(cc4c(N5C(=O)OC[C@@H]5C)noc4c3F)CC3(C(=O)NC(=O)NC3=O)[C@H]2[C@H](C)O1 [AZD9014] | – | – | – | – | – | – | Activity against human Top2β (human Top2β): low activity
2 | C[C@@H]1CN2c3ccc([N+](=O)[O-])cc3CC3(C(=O)NC(=O)NC3=O)[C@H]2[C@H](C)O1 [QPT-1, quinoline pyrimidine trione-1] | 0.5 (≈ 1.34 µM) | 2 (≈ 5.34 µM) | 4 (≈ 10.7 µM) | – | – | – | IC50 (E. coli DNA gyrase [1]): 0.65 µM; MIC (Klebsiella pneumoniae): 0.125; MIC (E. coli; Escherichia coli 7623 tolC): 0.063 mg/L (≈ 0.168 µM); MIC (E. coli; [11]): 8 mg/L (≈ 21.4 µM); MIC (E. coli; [12]): 0.063 mg/L (≈ 0.168 µM); MIC (Haemophilus influenzae; Haemophilus influenzae H128): ≤ 0.125; MIC (Haemophilus influenzae; Haemophilus influenzae H128 acrB): ≤ 0.125; MIC (Acinetobacter baumannii): 0.125; EC50 (S. aureus DNA gyrase [2]): 8.8 µM; Type of DNA breaks stabilized with S. aureus DNA gyrase (S. aureus DNA gyrase [2]): DSB; IC50 (Human Top2α [3]): > 500 µM; IC50 (E. coli Topo IV [4]): 30 µM; Activity against human Top2α (Human Top2α [5]): does not have detectable activity; EC50 (Human Top2α [5]): > 800 µM; DNA cleavage activity relative to the (+) enantiomer (more active) (E. coli DNA gyrase [6]): ~ 30 fold
3 | COc1ccc2ncc(C#N)c(CCN3CCC(NCc4cc5c(cn4)OCS5)CC3)c2c1 [GSK299423] | 0.016 (≈ 0.0347 µM) | 0.125 (≈ 0.271 µM) | 0.125 (≈ 0.271 µM) | 0.125 (≈ 0.271 µM) | 0.125 (≈ 0.271 µM) | 0.016 (≈ 0.0347 µM) | –
4 | COc1cc([C@@H]2c3cc4c(cc3[C@@H](O[C@@H]3O[C@@H]5CO[C@@H](c6cccs6)O[C@H]5[C@H](O)[C@H]3O)[C@H]3COC(=O)[C@H]23)OCO4)cc(OC)c1O [Teniposide, teniposide] | 16 (≈ 24.4 µM) | 32 (≈ 48.7 µM) | 32 (≈ 48.7 µM) | 64 (≈ 97.5 µM) | 32 (≈ 48.7 µM) | 32 (≈ 48.7 µM) | –
5 | COc1c(N2C[C@@H]3CCCN[C@@H]3C2)c(F)cc2c(=O)c(C(=O)O)cn(C3CC3)c12 [Moxifloxacin, moxifloxacin] | 0.063 (≈ 0.157 µM) | 0.063 (≈ 0.157 µM) | 0.063 (≈ 0.157 µM) | – | – | – | MIC (E. coli; [11]): ≤ 0.016 mg/L; MIC (E. coli; [12]): ≤ 0.016 mg/L; IC50 (S. aureus Topo IV [7]): 3.8 µM; Type of DNA breaks stabilized with S. aureus DNA gyrase (S. aureus DNA gyrase [2]): DSB; MIC (S. pneumoniae; [15]): 0.031 mg/L (≈ 0.0772 µM); MIC (S. pneumoniae; S. pneumoniae 1629 GyrB R447C): 0.094 mg/L (≈ 0.234 µM); MIC (S. pneumoniae; [16]): 0.047 mg/L (≈ 0.117 µM)
6 | COc1cccc2c1C(=O)c1c(O)c3c(c(O)c1C2=O)C[C@@](O)(C(=O)CO)C[C@@H]3O[C@H]1C[C@H](N)[C@H](O)[C@H](C)O1 [Doxorubicin, doxorubicin] | 8 (≈ 14.7 µM) | 8 (≈ 14.7 µM) | 8 (≈ 14.7 µM) | 8 (≈ 14.7 µM) | 4 (≈ 7.36 µM) | 3 (≈ 5.52 µM) | –
7 | COc1cccc2c1C(=O)c1c(O)c3c(c(O)c1C2=O)C[C@@](O)(C(C)=O)C[C@@H]3O[C@H]1C[C@H](N)[C@H](O)[C@H](C)O1 [Daunorubicin, daunorubicin] | 8 (≈ 15.2 µM) | 8 (≈ 15.2 µM) | 8 (≈ 15.2 µM) | 8 (≈ 15.2 µM) | 4 (≈ 7.58 µM) | 1.5 (≈ 2.84 µM) | –
8 | Cc1c2ccncc2c(C)c2c1[nH]c1ccccc12 [Ellipticine, ellipticine] | 1 (≈ 4.06 µM) | 1 (≈ 4.06 µM) | 1 (≈ 4.06 µM) | 1 (≈ 4.06 µM) | 1 (≈ 4.06 µM) | 1 (≈ 4.06 µM) | –
9 | COc1cc(NS(C)(=O)=O)ccc1Nc1c2ccccc2nc2ccccc12 [Amsacrine, amsacrine] | > 128 | 32 (≈ 81.3 µM) | > 128 | 64 (≈ 163 µM) | 32 (≈ 81.3 µM) | 128 (≈ 325 µM) | –
10 | COc1cc([C@@H]2c3cc4c(cc3[C@@H](O[C@@H]3O[C@@H]5CO[C@@H](C)O[C@H]5[C@H](O)[C@H]3O)[C@H]3COC(=O)[C@H]23)OCO4)cc(OC)c1O [Etoposide, etoposide] | 64 (≈ 109 µM) | 256 (≈ 435 µM) | 128 (≈ 217 µM) | 256 (≈ 435 µM) | 256 (≈ 435 µM) | 256 (≈ 435 µM) | IC50 (E. coli DNA gyrase [1]): 134 µM; Plateau of fitted IC50 curve, % of maximal inhibition (E. coli DNA gyrase [1]; E. coli DNA gyrase supercoiling): approx. 60%; IC50 (S. aureus Topo IV [8]): 246 µM; Plateau of fitted IC50 curve, % of maximal inhibition (S. aureus Topo IV [8]): ~50%; IC50 (S. aureus DNA gyrase [9]): 48 µM; Plateau of fitted IC50 curve, % of maximal inhibition (S. aureus DNA gyrase [9]; S. aureus DNA gyrase supercoiling): ~75%; MIC (E. coli; [11]): > 256 mg/L; MIC (E. coli; [12]): 0.75 mg/L (≈ 1.27 µM); EC50 (S. aureus DNA gyrase [2]): 107 µM; Type of DNA breaks stabilized with S. aureus DNA gyrase (S. aureus DNA gyrase [2]): both SSB and DSB; MIC (S. pneumoniae; [15]): 2 mg/L (≈ 3.4 µM); MIC (S. pneumoniae; S. pneumoniae 1629 GyrB R447C): 16 mg/L (≈ 27.2 µM); MIC (S. pneumoniae; [16]): 16 mg/L (≈ 27.2 µM); Plateau of fitted IC50 curve, % of maximal inhibition (E. coli Topo IV [10]; E. coli Topo IV decatenation): ~75%; IC50 (E. coli Topo IV [10]; read-out: IC50, E. coli Topo IV decatanation): 107 µM
11 | O=C1c2c(O)ccc(O)c2C(=O)c2c(NCCNCCO)ccc(NCCNCCO)c21 [Mitoxantrone, mitoxantrone] | 32 (≈ 72 µM) | 8 (≈ 18 µM) | 32 (≈ 72 µM) | 8 (≈ 18 µM) | 4 (≈ 9 µM) | 6 (≈ 13.5 µM) | –
